In ChEMBL document CHEMBL1201862, “PubChem BioAssay data set” (2004):
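Grown in 96-well plates, cells were treated for 48 hours with each compound at five concentrations. Insufficient inhibition: endpoint recorded as highest concentration tested. GI50: concentration for 50% inhibition of growth.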 The source made the active and inactive calls. No stated cut-off is given here; in the data, active = GI50 up to about 1.1 µM and inactive = higher.

Key:
Assay in all cases: NCI anticancer screen, dose series, 48 h
HCT-15 = test system: HCT-15
SN12C = test system: SN12C
UACC-62 = test system: UACC-62
RXF 393 = test system: RXF 393
HT-29 = test system: HT-29
NCI/ADR-RES = test system: NCI/ADR-RES
MDA-MB-435 = test system: MDA-MB-435
786-0 = test system: 786-0
DU-145 = test system: DU-145
MOLT-4 = test system: MOLT-4
SNB-19 = test system: SNB-19
T47D = test system: T47D
SK-MEL-2 = test system: SK-MEL-2
BT-549 = test system: BT-549
NCI-H522 = test system: NCI-H522
HOP-92 = test system: HOP-92
HOP-62 = test system: HOP-62
OVCAR-3 = test system: OVCAR-3
A498 = test system: A498

Row | Structure (SMILES) | GI50 (HCT-15) [µM] | GI50 (SN12C) | GI50 (UACC-62) | GI50 (RXF 393) | GI50 (HT-29) | GI50 (NCI/ADR-RES) | GI50 (MDA-MB-435) | GI50 (786-0) | GI50 (DU-145) | GI50 (MOLT-4) | GI50 (SNB-19) | GI50 (T47D) | GI50 (SK-MEL-2) | GI50 (BT-549) | GI50 (NCI-H522) | GI50 (HOP-92) | GI50 (HOP-62) | GI50 (OVCAR-3) | GI50 (A498)
1 | N=c1oc2ccc([N+](=O)[O-])cc2cc1C(=O)NCc1ccccc1 | 17.8 | 19.9 µM (inactive) | 20.2 µM (inactive) | 14.7 µM (inactive) | 18.5 µM (inactive) | 16.5 µM (inactive) | 23.1 µM (inactive) | 24.6 µM (inactive) | 33 µM (inactive) | 27.9 µM (inactive) | 39 µM (inactive) | 17.9 µM (inactive) | 19.3 µM (inactive) | 14 µM (inactive) | 12.8 µM (inactive) | 18 µM (inactive) | 38.5 µM (inactive) |  | 
2 | COc1ccc2[nH]c(S(=O)(=O)N3CC(CCl)c4ccc(N)cc43)cc2c1 (centres undefined) | < 0.0254 | 0.32 µM (active) | 0.0773 µM (active) | 0.675 µM (active) | 1.65 µM (inactive) | 0.0624 µM (active) | < 0.01 µM (active) | 0.0771 µM (active) | 0.429 µM (active) | 0.0826 µM (active) | 8.22 µM (inactive) | 34.8 µM (inactive) |  | 6.55 µM (inactive) | < 0.01 µM (active) | 13.7 µM (inactive) | 0.475 µM (active) | 0.022 µM (active) | 11.2 µM (inactive)
3 | COc1cc(/C=C2\N=C(c3ccccc3)N(c3nc4ccccc4s3)C2=O)cc(OC)c1OC | 30.3 | 26.5 µM (inactive) |  | 18.8 µM (inactive) | 26.9 µM (inactive) | 20.4 µM (inactive) | 15.6 µM (inactive) | 24.8 µM (inactive) | 34.1 µM (inactive) | 11.7 µM (inactive) | 34.2 µM (inactive) | 28.9 µM (inactive) | 90.8 µM (inactive) | 17.5 µM (inactive) | 13.4 µM (inactive) | 26.2 µM (inactive) | 24.4 µM (inactive) | 20 µM (inactive) | 52.7 µM (inactive)
4 | CO[C@@]12C[C@@H](C)[C@]34O[C@H]3C[C@]3(C)O[C@]43CC1=C(C)C(=O)O2 | > 100 | > 100 µM (inactive) | > 100 µM (inactive) |  | > 100 µM (inactive) | > 100 µM (inactive) | > 100 µM (inactive) | > 100 µM (inactive) | > 100 µM (inactive) | < 0.01 µM (active) | > 100 µM (inactive) | > 100 µM (inactive) | > 100 µM (inactive) | > 100 µM (inactive) | > 100 µM (inactive) | > 100 µM (inactive) |  | > 100 µM (inactive) | > 100 µM (inactive)
5 | CCN1CCCn2c(=O)[nH]c3cc(Br)cc1c32 | > 100 | > 100 µM (inactive) | 69.8 µM (inactive) | 15.2 µM (inactive) | > 100 µM (inactive) | > 100 µM (inactive) | > 100 µM (inactive) | 65 µM (inactive) | > 100 µM (inactive) | 60.8 µM (inactive) | 89.1 µM (inactive) | 65.5 µM (inactive) | > 100 µM (inactive) | 14.6 µM (inactive) |  |  | 25.5 µM (inactive) | > 100 µM (inactive) | 15.1 µM (inactive)
6 | CCOC(=O)c1nnn(CCCCO)c1C(=O)OCC | > 100 | > 100 µM (inactive) | > 100 µM (inactive) | > 100 µM (inactive) | > 100 µM (inactive) | > 100 µM (inactive) | > 100 µM (inactive) | > 100 µM (inactive) | > 100 µM (inactive) | > 100 µM (inactive) | 30.1 µM (inactive) | > 100 µM (inactive) | > 100 µM (inactive) | > 100 µM (inactive) |  | > 100 µM (inactive) | > 100 µM (inactive) |  | 
7 | C=CCOC1(CC=C)C(=O)OC2C(O)COC21O (centres undefined) | > 100 | > 100 µM (inactive) | > 100 µM (inactive) | > 100 µM (inactive) | > 100 µM (inactive) | > 100 µM (inactive) | > 100 µM (inactive) | > 100 µM (inactive) | > 100 µM (inactive) | > 100 µM (inactive) | > 100 µM (inactive) | > 100 µM (inactive) | > 100 µM (inactive) | > 100 µM (inactive) | > 100 µM (inactive) |  | > 100 µM (inactive) | > 100 µM (inactive) | > 100 µM (inactive)
8 | N#CC1=C(N2CCOCC2)CCC1 | > 100 | > 100 µM (inactive) | > 100 µM (inactive) | > 100 µM (inactive) | > 100 µM (inactive) | > 100 µM (inactive) | > 100 µM (inactive) | > 100 µM (inactive) | > 100 µM (inactive) | > 100 µM (inactive) | > 100 µM (inactive) | > 100 µM (inactive) | > 100 µM (inactive) | > 100 µM (inactive) | > 100 µM (inactive) |  | > 100 µM (inactive) | > 100 µM (inactive) | > 100 µM (inactive)
